{"source": "patent US20230270764A1", "about": "“COMPOSITION COMPRISING CANNABINOIDS, TERPENES, AND FLAVONOIDS FOR TREATING DEPRESSION” (priority 2020, published 2023)", "key": {"BV2 microglial cells [1]": {"tested_on": "BV2 microglial cells", "experiment": "Poly I:C-induced TNFα release by BV2 microglia", "format": "cell-based, murine", "details": "5 and 10 µM", "protocol": "(§1) The BV2 cells are cultured at 37° C. in a humidified atmosphere with 5% CO2 in high D-glucose (4.5 g/L) Dulbecco’s modified Eagle’s medium (Sigma, Rehovot, Israel) supplemented with 5% heat-inactivated fetal bovine serum, streptomycin (100 µg/ml), and penicillin (100 units/ml) and sodium pyruvate (1 mM; all from Biological Industries Ltd., Kibbutz Beit Haemek, Israel). 24 hours before experiments with LPS stimulation, the BV2 cells are split into 24 well plates, 2×10^5 cells per well, covered with 1 ml of growth medium and allowed to attach overnight. 24 hr before experiments with α-synuclein, the BV2 cells are split into 96-well plates, 50,000 (5×10^4) cells per well, covered with 200 µl of growth medium and allowed to attach overnight. […]"}, "[2]": {"tested_on": "treatment-resistant major depression patients", "experiment": "Clinical trial of celecoxib plus CBD in treatment-resistant major depression patients", "format": "in vivo, human", "details": "celecoxib or CBD, each by itself", "method": "In the current study, the antidepressant effect of a combination of celecoxib and CBD is tested in a randomized, prospective, double-blind clinical trial in 80 treatment-resistant major depression patients of both genders, in the age range of 23-70 years. […] The safety and efficacy of celecoxib, CBD and their combination vs. vehicle placebo are assessed. Primary endpoints include the changes from baseline to post-treatment in overall depression levels, and particularly in the vegetative and somatic symptoms of depression, which are highly associated with the inflammatory status of the patients. Secondary endpoints include the changes from baseline to post-treatment in anxiety levels, overall functioning and clinical impression, as well as anhedonia.\nTreatment-resistant depressed patients undergo psychological assessment using the Montgomery-Asberg Depression Rating Scale (MADRS), with further analysis of the 3 specific factors of this scale (vegetative symptoms, dysphoria, and retardation), the Somatic Symptoms Scale-8, the Hamilton Anxiety Rating Scale (HARS), the Clinical Global Improvement and Severity Scales (CGI-I and CGI-S), and the Snaith-Hamilton Pleasure Scale (SHAPS). Subjects are treated twice daily (per os) with either a formulation containing celecoxib and CBD or with vehicle placebo. […]"}, "BV2 microglial cells [3]": {"tested_on": "BV2 microglial cells", "experiment": "LPS-induced IL-1β release by BV2 microglia cell cultures (ELISA)", "format": "cell-based, murine", "details": "for IL-1β secretion vs Veh plus LPS: Example 4, by itself at 5 µM, not at 1 or 2.5 µM; for pIC50: Mus musculus", "protocol": "(§2) The BV2 murine microglial cell line is used in these studies.\n(§3) The BV2 cells are cultured at 37° C. in a humidified atmosphere with 5% CO2 in high D-glucose (4.5 g/L) Dulbecco’s modified Eagle’s medium (Sigma, Rehovot, Israel) supplemented with 5% heat-inactivated fetal bovine serum, streptomycin (100 µg/ml), and penicillin (100 units/ml) and sodium pyruvate (1 mM; all from Biological Industries Ltd., Kibbutz Beit Haemek, Israel). 24 hours before experiments with LPS stimulation, the BV2 cells are split into 24 well plates, 2×10^5 cells per well, covered with 1 ml of growth medium and allowed to attach overnight. 24 hr before experiments with α-synuclein, the BV2 cells are split into 96-well plates, 50,000 (5×10^4) cells per well, covered with 200 µl of growth medium and allowed to attach overnight. Cultures of BV2 microglia cells are first treated by an individual cannabinoid, or terpene or flavonoid selected from: Cannabidiol (CBD), Δ-9-tetrahydrocannabinol (THC), Δ-8-tetrahydrocannabinol (THC), cannabigerol (CBG), cannabichromene (CBC), cannabigerolic acid (CBGA), Cannabidiolic acid (CBDA), THC acid (THCA), cannabichromenic Acid (CBCA), Cannabidivarin (CBDV), tetrahydrocannabivarin (THCV), Cannabichromevarin (CBCV), Cannabichromerocin ([…]), Cannabivarin (CBV), Cannabicitran (CBT), Cannabinol (CBN), Cannabicyclol (CBL), Cannabigerorcin (CBGO), Cannabinodiol (CBND), β-caryophyllene, β-elemene, β-myrcene, linalool, α-pinene, β-pinene, eucalyptol, alpha-terpineol, valencene, geraniol (lemonol), bisabolol, nerolidol, ocimene, terpinolene, humulene, α-terpinene, camphene, fenchol, α-phellandrene, Δ3-carene, γ-cardinene, sabinene, limonene, β-amyrin, cycloartenol, cannflavin A, cannflavin B, kaempferol, quercetin, luteolin, apigenin, canniprene, orientin, β-sitosterol, vitexin, isovitexin, and chrysin. Additional cultures of BV2 microglia cells are treated by an individual cannabinoid, with at least one additional cannabinoid, and/or terpene, and/or flavonoid, and/or celecoxib. Additional cultures are exposed to the vehicle of these compounds (cremophor, ethanol and PBS, 1:1:18 (v/v/v)) (FIG. 2A). In some studies, cultures of BV2 microglia cells are treated by a specific whole plant cannabis extract, with or without supplementation with cannabinoid(s), and/or terpene(s) and/or flavonoid(s), and/or celecoxib (FIG. 2B).\n(§4) For each individual cannabinoid mentioned above, 3-4 concentrations are used, ranging from 0.1 to 10 µM. For ultra-low dose Δ9-THC the concentration used is 0.01 µM. For each individual terpene or flavonoid mentioned above, 3-4 concentrations are used, ranging from 1 to 50 µM. For celecoxib, 3-4 concentrations are used, ranging from 0.1 to 10 µM. Two hours following the treatment, the cultures are exposed to one of the following microglia stimulators: LPS (Sigma L2630; Escherichia coli serotype O111:B4) is dissolved in D-PBS (Sigma, D8537) to a pre-stock concentration of 1 mg/ml, aliquoted and stored at -80° C. Stock solution of LPS at 10 ug/ml is prepared using sterile D-PBS, followed by filtering via 0.22 µm filter membrane, aliquoting and storing in -20° C. LPS is applied into the cell medium at a final concentration of 100 ng/ml. Poly I:C (Sigma, P1530) was first dissolved in sterile, molecular grade water to the concentration of 10 mg/ml (following the manufacturer’s instructions). This stock solution was further diluted to the concentration of 1 mg/ml in sterile PBS, and the aliquots stored in -20 °C."}, "C57BL/6 mice": {"tested_on": "C57BL/6 mice", "experiment": "Porsolt forced swim test", "format": "in vivo", "details": "CLX 10 mg/kg; CBD 5 mg/kg i.p.", "text": "All experiments were approved by the Hebrew University of Jerusalem Ethics Committee on Animal Care and Use. […] All data are presented as mean ± SEM."}, "LPS-injected mice": {"tested_on": "LPS-injected mice", "experiment": "Sucrose preference test in the LPS-induced model of depression", "format": "in vivo"}, "BV2 microglial cells [4]": {"tested_on": "BV2 microglial cells", "experiment": "Poly I:C-induced IL-6 release by BV2 microglia", "format": "cell-based, murine", "details": "10 µM", "protocol": "as §1"}, "BV2 microglial cells [5]": {"tested_on": "BV2 microglial cells", "experiment": "LPS-induced IL-6 release by BV2 microglia cell cultures (ELISA)", "format": "cell-based, murine", "details": "for pIC50: Mus musculus", "protocol": "as §2, §3, §4"}, "[6]": {"details": "adult (6-9 months-old) male mice, acute CBD"}, "[7]": {"details": "young-adult male mice, CBD 30 mg/kg i.p. 3 consecutive days"}}, "note": "pIC50: −log10 of the molar value."}
{"smiles": "C=C(C)[C@@H]1CCC(C)=C[C@H]1c1c(O)cc(CCCCC)cc1O", "note": "[CBD, cannabidiol]", "values": [{"measurement": "Poly I:C-induced TNFα release", "setting": "BV2 microglial cells [1]", "value": "significantly decreased"}, {"measurement": "changes in depression, anxiety, anhedonia and subjective improvement", "setting": "[2]", "value": "only mild changes"}, {"measurement": "IL-1β levels", "setting": "BV2 microglial cells [3]; Example 3, 5 and 10 µM", "value": "effectively reduced"}, {"measurement": "IL-1β secretion vs Veh plus LPS", "setting": "BV2 microglial cells [3]", "value": "effective in decreasing IL-1β"}, {"measurement": "IL-1β release vs Veh plus LPS", "setting": "BV2 microglial cells [3]; Example 5, alone at 5 µM, no effect at 1 and 2.5 µM", "value": "decreased the IL-1β levels significantly"}, {"measurement": "LPS-induced IL-1β secretion", "setting": "BV2 microglial cells [3]; Example 7, CBD 5 µM by itself (p<0.001)", "value": "significant suppression of IL-1β secretion"}, {"measurement": "LPS-induced IL-1β release", "setting": "BV2 microglial cells [3]; Example 25, CannA, CannB 2.5, 5 and 10 µM, CBD, CannC 5 and 10 µM", "value": "significantly reduced"}, {"measurement": "pIC50", "setting": "BV2 microglial cells [3]; BV-2, read-out: CBD IC50, LPS-induced IL-1β release, Example 4, addition of 1 µM kaempferol", "value": 5.48}, {"measurement": "pIC50", "setting": "BV2 microglial cells [3]; BV-2, read-out: CBD IC50, LPS-induced IL-1β release, Example 4, addition of 2.5 µM kaempferol", "value": 5.68}, {"measurement": "pIC50", "setting": "BV2 microglial cells [3]; BV-2, read-out: CBD IC50, LPS-induced IL-1β release, Example 4, addition of 5 µM kaempferol", "value": 5.96}, {"measurement": "pIC50", "setting": "BV2 microglial cells [3]; BV-2, read-out: CBD IC50, LPS-induced IL-1β release, Example 5, addition of 1 µM quercetin", "value": 5.68}, {"measurement": "pIC50", "setting": "BV2 microglial cells [3]; BV-2, read-out: CBD IC50, LPS-induced IL-1β release, Example 5, addition of 2.5 µM quercetin", "value": 5.77}, {"measurement": "pIC50", "setting": "BV2 microglial cells [3]; BV-2, read-out: CBD IC50, LPS-induced IL-1β release, Example 5, addition of 5 µM quercetin", "value": 6.30}, {"measurement": "pIC50", "setting": "BV2 microglial cells [3]; BV-2, read-out: IC50 for IL-1β inhibition, Example 25 (FIG. 25F), extracts calculated on dominant cannabinoid", "value": 5.33}, {"measurement": "pIC50", "setting": "BV2 microglial cells [3]; BV-2, read-out: IC50 for inhibiting LPS-induced IL-1β release, Example 4 (FIG. 5D), by itself", "value": 5.35}, {"measurement": "pIC50", "setting": "BV2 microglial cells [3]; BV-2, read-out: IC50 for inhibiting LPS-induced IL-1β release, Example 5 (FIG. 6D), by itself", "value": 5.48}, {"measurement": "immobility time, each compound by itself", "setting": "C57BL/6 mice", "value": "no significant effects"}, {"measurement": "sucrose preference vs vehicle-LPS group", "setting": "LPS-injected mice; Example 18, celecoxib 10, 20, 30 mg/kg or CBD 30 mg/kg by themselves", "value": "no significant effects"}, {"measurement": "sucrose consumption, LPS-injected groups", "setting": "LPS-injected mice; [6]", "value": "significant difference between the CBD- and vehicle-treated group"}, {"measurement": "sucrose preference", "setting": "LPS-injected mice; [6]", "value": "reduction in the negative effect of LPS on sucrose preference"}, {"measurement": "sucrose preference and sucrose consumption", "setting": "LPS-injected mice; adult and young adult female mice, acute CBD, saline or LPS", "value": "None of these parameters was influenced by treatment with CBD"}, {"measurement": "sucrose preference compared with the saline-injected control group", "setting": "LPS-injected mice; adult female mice, LPS, CBD 30 mg/kg, CBD 30 mg plus kaempferol 60 mg", "value": "significantly reduced sucrose preference"}, {"measurement": "LPS-induced decreases in sucrose preference and sucrose consumption", "setting": "LPS-injected mice; young adult (2.5-3 months old) male mice, acute CBD", "value": "None of these parameters was influenced by treatment with CBD"}, {"measurement": "sucrose consumption, main effect of CBD", "setting": "LPS-injected mice; young-adult female mice, acute CBD, difference among saline-injected mice", "value": "significantly reduced"}, {"measurement": "LPS-induced reduction in sucrose consumption", "setting": "LPS-injected mice; [7]", "value": "no effect"}, {"measurement": "LPS-induced suppression of sucrose preference", "setting": "LPS-injected mice; [7]", "value": "completely reversed"}, {"measurement": "Poly I:C-induced IL-6", "setting": "BV2 microglial cells [4]", "value": "markedly decreased"}, {"measurement": "release of IL-6", "setting": "BV2 microglial cells [5]; Example 3, 10 µM", "value": "significantly inhibited"}, {"measurement": "IL-6 secretion vs Veh plus LPS", "setting": "BV2 microglial cells [5]; Example 6, CBD or CBDV given by themselves", "value": "no significant effect"}, {"measurement": "LPS-induced IL-6 release", "setting": "BV2 microglial cells [5]; Example 25, CBD, CannA, CannB 5 and 10 µM, CannC 10 µM", "value": "significantly decreased"}, {"measurement": "pIC50", "setting": "BV2 microglial cells [5]; BV-2, Example 6 (FIG. 7D), by itself, read-out: IC50 for inhibiting LPS-induced IL-6 release", "value": 5.37}, {"measurement": "pIC50", "setting": "BV2 microglial cells [5]; BV-2, Example 6, addition of 1 µM CBDV, read-out: CBD IC50, LPS-induced IL-6 release", "value": 5.51}, {"measurement": "pIC50", "setting": "BV2 microglial cells [5]; BV-2, Example 6, addition of 2.5 µM CBDV, read-out: CBD IC50, LPS-induced IL-6 release", "value": 5.70}, {"measurement": "pIC50", "setting": "BV2 microglial cells [5]; BV-2, Example 6, addition of 5 µM CBDV, read-out: CBD IC50, LPS-induced IL-6 release", "value": 5.77}, {"measurement": "pIC50", "setting": "BV2 microglial cells [5]; BV-2, Example 25 (FIG. 25E), extracts calculated on dominant cannabinoid, read-out: IC50 for IL-6 inhibition", "value": 5.23}]}
{"smiles": "C=C(C)[C@@H]1CCC(C)=C[C@H]1c1c(O)cc(CCCCC)c(C(=O)O)c1O", "note": "[CBDA, Cannabidiolic acid]", "values": [{"measurement": "sucrose consumption vs Vehicle-treated LPS-injected mice", "setting": "LPS-injected mice; young-adult female mice, CBDA 1 mg/kg (not 0.5 or 5)", "value": "significantly increased"}, {"measurement": "sucrose preference vs Vehicle-treated LPS-injected mice", "setting": "LPS-injected mice; young-adult female mice, CBDA 1 mg/kg (not 0.5 or 5) i.p. 1 hr before LPS 330 µg/kg", "value": "significantly increased"}, {"measurement": "sucrose consumption vs Vehicle-treated LPS-injected mice", "setting": "LPS-injected mice; young-adult male mice, CBDA 1 mg/kg", "value": "significantly increased"}, {"measurement": "sucrose preference vs Vehicle-treated LPS-injected mice", "setting": "LPS-injected mice; young-adult male mice, CBDA 1 mg/kg (not 5)", "value": "significantly increased"}, {"measurement": "sucrose consumption vs Vehicle-treated LPS-injected mice", "setting": "LPS-injected mice; young-adult male mice, CBDA 5 mg/kg, CBD 25 mg/kg and CBDA 1 mg/kg", "value": "significant increase"}]}
{"smiles": "O=c1c(O)c(-c2ccc(O)cc2)oc2cc(O)cc(O)c12", "note": "[kaempferol]", "values": [{"measurement": "IL-1β secretion vs Veh plus LPS", "setting": "BV2 microglial cells [3]", "value": "effective in decreasing IL-1β"}, {"measurement": "pIC50", "setting": "BV2 microglial cells [3]; BV-2, Example 4 (FIG. 5D), by itself, read-out: IC50 for inhibiting LPS-induced IL-1β release", "value": 5.21}]}
